Where “and” joins values, the source holds several entries; their conditions need not be identical. Equal values may be shown once.
Test system: 377384-186-R-J1-PDC complex spheroid viability
Experiment: Anticancer human tumor 377384-186-R-J1-PDC patient-derived pancreatic carcinoma cell line growth inhibition [CLK]
Conditions: for viability, T/C: stronger effect = lower value; for IC50: curve of compound
Source text: A high-throughput screen of multi-cell type tumor spheroids was designed to identify active combinations of […] and targeted small molecules. Complex spheroids include a stromal component modeled by human endothelial cells (HUVEC) and fibroblasts modeled by human mesenchymal stem cells (MSCs). The concentration ranges selected for each drug and investigational agent were based upon clinically achievable concentrations if the clinical Cmax of the agent was known.
Compounds. The drugs and investigational agents: cirtuvivint (SM08502; NSC835563), CC-671 (NSC850746), vemurafenib (NSC761431), tapotoclax (NSC804041), sotorasib (NSC818433), adagrasib (NSC831453), MRTX-1133 (NSC836407), BAY2416964 (NSC825713), copanlisib (NSC816437), inavolisib (NSC800729), abemaciclib (NSC768073), osimertinib (NSC779217), entinostat (NSC756642), eltanexor (KPT-8602, NSC794443), venetoclax (NSC766270), ceralasertib (NSC777638), bortezomib (NSC756655), olaparib (NSC753686), talazoparib (NSC767125), alisertib (NSC759677), peposertib (NSC802822), gemcitabine (NSC613327), 5-fluorouracil (NSC19893), SN-38 (NSC673596), oxaliplatin (NSC266046), paclitaxel (NSC125973), and doxorubicin (NSC123127), were obtained from the National Cancer Institute (NCI) Developmental Therapeutics Program Chemical Repository. The FDA-approved anticancer drug set is available from the Developmental Therapeutics Program at https://dtp.cancer.gov/organization/dscb/obtaining/available plates.htm. […] The stock solutions were prepared in dimethyl sulfoxide (DMSO, Sigma-Aldrich, St. Louis, MO, cat. D2650), except for the platinum complexes which were prepared in saline (Quality Biological, Gaithersburg, MD, cat. 114-055-101), at 800-fold the tested concentration and stored at -70 degrees C prior to their use. All drugs and investigational agents were tested over a range starting from a high concentration at or near the clinical Cmax and decreasing in half-log increments. If the clinical Cmax for an agent had not been determined, the highest concentration tested was 10 microM.
Cell Culture. All cells were maintained in an incubator at 37 degrees C and 5% CO2 with 95% humidity. The PDC lines were cultured according to standard operating procedures established by the NCI PDMR. Briefly, all PDCs were thawed and cultured in Matrigel-coated flasks prepared with a working solution of 1X Ham's F-12 nutrient mix, without supplementation (Invitrogen, Waltham, MA, cat. 11765054), 100 U/mL penicillin-streptomycin (Invitrogen, cat. 15140122), and 2.5% Matrigel (Corning Inc., Corning, NY, cat. 354248) for the first three passages. The 947758-054-R-J2-PDC line was cultured in 6B/Colon 1A media, which includes advanced DMEM/F-12 (Thermo Fisher Scientific, cat. 12634028), 10 mM HEPES (Thermo Fisher Scientific, cat. 15630080), 1X GlutaMAX supplement (Thermo Fisher Scientific, cat. 35050061), 0.1 mg/mL primocin (InvivoGen, cat. ant-pm-2), 10% defined fetal bovine serum, heat inactivated (HyClone Laboratories Inc., cat. SH30070.03HI), 1.25 mM N-Acetyl-L-cysteine (Sigma-Aldrich, cat. A9165), 10 mM nicotinamide (Sigma-Aldrich, cat. N0636), 1X B-27 supplement (Thermo Fisher Scientific, cat. 17504044), 1X N-2 supplement (Thermo Fisher Scientific, cat. 17502048), and 10 microM Y-27632 dihydrochloride (Tocris Bioscience, cat. 1254). The 876862-298-R-J1-PDC was cultured in 6E media, which includes all 6B/Colon 1A media components plus 50% L-WRN conditioned media (ATCC, cat. CRL-3276), 50 ng/mL recombinant human EGF recombinant protein (hEGF; Thermo Fisher Scientific, cat. PHG0311), 10 ng/mL recombinant human fibroblast growth factor 10 (hGFG-10; PeproTech, cat. 100-26), 1 ng/mL recombinant human fibroblast growth factor 2 (hFGF-2; PeproTech, cat. 100-18B), and 1 µM prostaglandin E2 (PGE2; Tocris, cat. 2296). The 227483-062-R1-J1-PDC line was cultured in Panc media, containing all 6E components except hFGF-2, with the addition of 500 nM SB-431542 (Selleckchem, cat. S1067) and 10 nM gastrin (Tocris, cat. 3006). […]
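Further: spheroids exposed to agents for 7 days before reading.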
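Wherever viability, T/C is given: luminescence signal used as a stand-in for viable cells.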

IC50	SMILES	viability, T/C (compound 0.0316 µM)	viability, T/C (compound 0.1 µM)	viability, T/C (compound 0.316 µM)	viability, T/C (compound 1 µM)	viability, T/C (compound 3.16 µM)	viability, T/C (compound 10 µM)
< 31.6 nM	C#Cc1c(F)ccc2cc(O)cc(-c3ncc4c(N5CC6CCC(C5)N6)nc(OCC56CCCN5CC(F)C6)nc4c3F)c12 (stereo unspecified)	21.7% and 21.4%	9.43% and 10.6%	5.31% and 3.97%	4.69% and 4.41%	2.25% and 2.02%	1.85% and 1.77%
< 31.6 nM	CC(=O)O[C@H]1C(=O)[C@@]2(C)[C@H]([C@H](OC(=O)c3ccccc3)[C@]3(O)C[C@H](OC(=O)[C@H](O)[C@@H](NC(=O)c4ccccc4)c4ccccc4)C(C)=C1C3(C)C)[C@]1(OC(C)=O)CO[C@@H]1C[C@@H]2O	7.92% and 6.8%	9.5% and 7.41%	10.5% and 9.32%	8.91% and 8.31%	10.3% and 8.38%	14.3% and 11.1%
7290 nM and 8480 nM	CC(CO)NC(=O)c1cc(-c2ccc(Cl)cc2)nn(-c2cnn(C)c2)c1=O (stereo unspecified)	94.9% and 112%	101% and 85.5%	105% and 103%	102% and 82.1%	77.7% and 70.1%	39.5% and 45.9%
–	CC(Nc1ccc2c(c1)OCCn1cc(N3C(=O)OCC3C(F)F)nc1-2)C(N)=O (stereo unspecified)	86.6% and 85.8%	90.3% and 69.1%	59.9% and 53%	56.3% and 54%	49.6% and 35.9%	43.6% and 36.5%
5200 nM and > 10000 nM	CC1(C)CCC(CN2CCN(c3ccc(C(=O)NS(=O)(=O)c4ccc(NCC5CCOCC5)c([N+](=O)[O-])c4)c(Oc4cnc5[nH]ccc5c4)c3)CC2)=C(c2ccc(Cl)cc2)C1	83.6% and 106%	86.1% and 92.5%	92.9% and 90.5%	99% and 97%	82.7% and 83.9%	–
2660 nM and 2050 nM	CC1COCCN1c1cc(C2(S(C)(=N)=O)CC2)nc(-c2ccnc3[nH]ccc23)n1 (stereo unspecified)	85.7% and 90.6%	108% and 109%	83.9% and 91.1%	82.9% and 74.7%	44% and 35.3%	17.6% and 14.9%
4380 nM and 2100 nM	COc1ccc([C@@H](O)c2cc(-c3ncnc4cc(N5CCOCC5)ccc34)c(F)cc2Cl)nn1	88.4% and 91.3%	92.5% and 94.2%	73% and 78.6%	66.6% and 61.9%	59.3% and 44.2%	35.7% and 31%
< 31.6 nM	COc1cccc2c1C(=O)c1c(O)c3c(c(O)c1C2=O)CC(O)(C(=O)CO)CC3OC1CC(N)C(O)C(C)O1 (stereo unspecified)	12.5% and 9.59%	7.59% and 5.12%	1.88% and 1.98%	0.76% and 0.47%	3.8% and 3.34%	8.38% and 5.34%
589 nM and 452 nM	Nc1ccccc1NC(=O)c1ccc(CNC(=O)OCc2cccnc2)cc1	85.8% and 79.5%	85.5% and 77.1%	65.3% and 57.9%	35.8% and 30.4%	13.3% and 12.8%	2.14% and 1.31%

Source: PubChem BioAssay AID2060616 (Molecular Pharmacology Branch, DTP, NCI, 2025)
